Laboratory results from US11014898B1, “Benzothiazepine compounds and their use as bile acid modulators” (Albireo AB, priority 2020, dated 2021).

Tests used:
Human IBAT = target: T1, Human IBAT (Homo sapiens, UniProt Q12908); test: IBAT (h) assay: 3H-taurocholic acid uptake in human IBAT-overexpressing cells; type: cell-based; details: 0.25 μM 3H-taurocholic acid and 5 μM cold taurocholic acid, 20 minutes, read-out: hIBAT IC50
T1 construct: expressed in transfected cells; cells kept under Puromycin selection
T1 sequence (Q12908 1-348): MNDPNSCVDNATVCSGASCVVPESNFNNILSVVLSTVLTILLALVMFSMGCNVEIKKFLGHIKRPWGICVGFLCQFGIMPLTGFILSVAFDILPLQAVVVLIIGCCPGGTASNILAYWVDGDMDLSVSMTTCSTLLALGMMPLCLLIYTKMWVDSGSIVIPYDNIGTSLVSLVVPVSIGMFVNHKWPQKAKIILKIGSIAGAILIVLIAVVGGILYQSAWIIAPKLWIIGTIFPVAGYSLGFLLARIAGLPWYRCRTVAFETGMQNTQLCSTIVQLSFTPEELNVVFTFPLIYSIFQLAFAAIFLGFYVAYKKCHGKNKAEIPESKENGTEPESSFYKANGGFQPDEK
Method: 10,000 cells (Human or Mouse IBAT-overexpressing cells) were seeded in 96-wells plate (Corning CLS3809) in 200 μL MEM-alpha medium (Gibco 12571-063) supplemented with 10% FBS (Gibco 10438026) containing Puromycin (Gibco A1113803) (10 μg/mL) and incubated at 37° C. in 5% CO2 for 48 hours. After incubation, media was decanted from the wells and cells were washed two times with 300 μL of basal MEM-alpha medium (FBS-free). After decanting basal MEM-alpha medium each time, plates were tapped against paper towel to ensure maximum removal of residual media. Test inhibitor dilutions (highest test concentration being 10 μM, 3-fold serial dilution, 10 points) prepared in DMSO (Sigma D2650) were added in incubation mix (maintaining 0.2% final DMSO concentration) containing 0.25 μM 3H-taurocholic acid (ARC ART-1368) and 5 μM of cold taurocholic acid (Sigma T4009). 50 μL of incubation mix containing test inhibitors was then added to the wells (in duplicate) and the plates were incubated for 20 minutes in a CO2 incubator at 37° C. After incubation, the reaction was stopped by keeping the plates on ice water mix for 2-3 minutes and then the incubation mix was aspirated completely from the wells. The wells were washed two times with 250 μL of chilled unlabelled 1 mM taurocholic acid dissolved in HEPES (Gibco 15630080)-buffered (10 mM) HBSS (Gibco 14175079) (pH 7.4). The plates were tapped against a paper towel after every wash to ensure maximum removal of blocking buffer.
(§1) 100 μL of MicroScint-20 (PerkinElmer 6013621) was added to the wells and kept overnight at room temperature before reading the plates in TopCount NXT™ Microplate Scintillation and Luminescence Counter from PerkinElmer under 3H Test protocol (set at 120 seconds reading time per well).
(§2) All test compounds were provided in powder form at room temperature. 10 mM DMSO stocks of the test compounds were prepared, aliquoted and stored at −20° C. From the 10 mM DMSO stock of the compounds, a 3-fold serial dilution in DMSO was prepared to get a total of 10 dilutions of the test compounds. 0.5 μL of this dilution in DMSO was added to 250 μL of FBS-free basal media containing 3H-taurocholic acid and cold taurocholic acid to prepare the incubation mixture.

[1] = Bidirectional permeability assay (Caco-2 cells); type: in vitro ADME; details: human, Caco-2, pH 7.4, 10 μM in FaSSIF buffer, 120 minutes at 37° C.; for Papp A→B at 120 min, 10 μM: absorptive direction (A2B); for Papp B→A at 120 min, 10 μM: secretory direction (B2A)
Method: Caco-2 cells (Evotec) were seeded at a density of 70,000 cells/well in Millicell® 24-well cell culture insert plates and maintained in an incubator (37° C., 5% CO2, 95% RH) for 21 days with media change on alternate days.
Stock solutions (10 mM) of the test compounds, atenolol (low permeability marker), propranolol (high permeability marker) and digoxin (substrate for P-gp transport pathway) were prepared in dimethylsulfoxide (DMSO). An intermediate stock solution (1 mM) was prepared by diluting 10 μL of 10 mM master stock solution with 90 μL of neat DMSO. A working stock solution (10 μM) was prepared by diluting 50 μL of 1 mM with 4950 μL of FaSSIF buffer. Post addition of compounds to the FaSSIF, samples were subjected to sonication for 2 hours, and centrifuged at 4000 RPM for 30 minutes at 37° C. The 4 mL of resultant supernatant was directly used in the assay. The final DMSO concentration in the transport experiments was 1%.
On the day of assay, Caco-2 monolayers were washed twice with transport buffer (HBSS, pH 7.4) and pre-incubated for 30 min (37° C., 5% CO2, 95% RH) in an incubator. The electrical resistance of the monolayers was measured with a Millicell®-ERS system. Monolayers with trans-epithelial electrical resistance (TEER) values greater than 350 ohm·cm^2 were selected for the assay.
The assay was conducted in absorptive direction (A2B) and secretory (B2A) directions. Transport experiments were initiated by addition of transport assay buffer (FaSSIF buffer prepared in HBSS) consisting of compounds to the donor compartment (apical chamber A-B; basolateral chamber B-A) in duplicate (n=2) wells. Drug free HBSS buffer (pH 7.4) containing 1% bovine serum albumin (BSA) was introduced to the receiver (A-B-basolateral; B-A-Apical) compartments. The volumes of apical and basolateral compartments were 0.4 and 0.8 mL, respectively. After adding dosing solution, plates were incubated in an incubator for 120 minutes at 37° C. After 120 minutes, donor and receiver samples were collected and matrix matched (1:1, 30 μL study sample+30 μL blank buffer) with the opposite buffer. Dosing samples matrix matched (1:1, 30 μL study sample+30 μL blank buffer) with the opposite buffer. Samples were processed by adding acetonitrile containing internal standard (60 μL study sample+200 μL acetonitrile containing internal standard-Tolbutamide, 500 ng/mL). Samples were vortexed and centrifuged at 4000 rpm for 10 minutes. The obtained supernatant (100 μL) was diluted with 100 μL of water and transferred to fresh 96 well plates. The concentration of compounds in the samples was analyzed by liquid chromatography tandem mass spectrometry (LC-MS/MS) method using discovery grade bio-analytical method, as applicable.
The mean apparent permeability (Papp×10^−6 cm/sec) of the test compounds, atenolol, propranolol and digoxin were calculated as follows:
where dq/dt=rate of transport (rate of transport of compound in the receiver compartment), C0=initial concentration in the donor compartment, A=surface area of the effective filter membrane.

[2] = Bioavailability studies (iv and oral dosing, plasma LC-MS/MS); type: in vivo, mice (C57BL/6); details: male, mouse, C57BL/6 mice, single oral dose of 10 mg/kg, single intravenous dose of 1 mg/kg
Method: Male mice (C57BL/6 or CD1) or Wistar rats of 8-9 weeks old were used. For each test compound, two groups of 3 animals each were used. One group was administered a single intravenous dose of 1 mg/kg (vehicle 100% DMSO) through the tail vein and the other group was administered a single oral dose of 10 mg/kg through gavage needle. The group that was administered an oral dose was fasted overnight. Blood samples were collected after 0.083, 0.25, 0.5, 1, 2, 4, 6, 8 and 24 hours following intravenous administration, and after 0.25, 0.5, 1, 2, 4, 6, 8 and 24 hours following oral administration. Blood samples were taken from saphenous vein. 0.2% EDTA was used as the anticoagulant. The samples were analyzed by a discovery grade bioanalytical method developed for the estimation of test compound in plasma, using an LC-MS/MS system.

Human LBAT = target: T2, Human LBAT (Homo sapiens, UniProt Q14973); test: LBAT (h) assay: 3H-taurocholic acid uptake in human LBAT-overexpressing cells; type: cell-based; details: 0.3 μM 3H-taurocholic acid and 7.5 μM cold taurocholic acid, 20 minutes, read-out: hLBAT IC50
T2 construct: expressed in transfected cells; cells kept under Geneticin selection
T2 sequence (Q14973 1-349): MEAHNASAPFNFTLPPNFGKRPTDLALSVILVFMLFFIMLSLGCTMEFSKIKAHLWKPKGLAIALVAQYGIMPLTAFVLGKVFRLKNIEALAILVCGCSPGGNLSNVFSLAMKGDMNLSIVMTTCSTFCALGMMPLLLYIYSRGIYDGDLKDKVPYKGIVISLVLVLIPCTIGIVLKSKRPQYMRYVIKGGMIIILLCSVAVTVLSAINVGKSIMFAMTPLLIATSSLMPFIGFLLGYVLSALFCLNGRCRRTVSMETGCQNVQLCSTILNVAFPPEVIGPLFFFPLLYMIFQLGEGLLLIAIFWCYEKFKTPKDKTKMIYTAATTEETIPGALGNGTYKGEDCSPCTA
Method: 20,000 cells (Human or Mouse LBAT-overexpressing cells) were seeded in 96-wells plate (Corning CLS3809) in 100 μL MEM-alpha medium (Gibco 12571-063) supplemented with 10% FBS (Gibco 10438026) containing Geneticin (Gibco 10131-027) (1 mg/mL) and incubated at 37° C. in 5% CO2 for 24 hours. After incubation, media was decanted from the wells and cells were washed two times with 300 μL of basal MEM-alpha medium (FBS-free). After decanting basal MEM-alpha medium each time, plates were tapped against paper towel to ensure maximum removal of residual media. For human LBAT, incubation mix was prepared by adding test inhibitor dilutions (3-fold serial dilution in DMSO (Sigma D2650), 10 points) in MEM-alpha (without FBS) containing 0.3 μM 3H-taurocholic acid (ARC ART-1368) and 7.5 μM cold taurocholic acid (Sigma T4009) (maintaining 0.2% final DMSO concentration). For mouse LBAT, incubation mix was prepared by adding test inhibitor dilutions (3-fold serial dilution in DMSO, 10 points) in MEM-alpha (without FBS) containing 0.3 μM 3H-taurocholic acid and 25 μM cold taurocholic acid maintaining 0.2% final DMSO concentration).
50 μL of incubation mix containing test inhibitors was then added to the wells (in duplicate) and the plates were incubated for 20 minutes in a CO2 incubator at 37° C. After incubation, the reaction was stopped by keeping the plates on ice water mix for 2-3 minutes and then the incubation mix was aspirated completely from the wells. The wells were washed two times with 250 μL of chilled unlabelled 1 mM taurocholic acid dissolved in HEPES (Gibco 15630080)-buffered (10 mM) HBSS (Gibco 14175079) (pH 7.4). The plates were tapped against a paper towel after every wash to ensure maximum removal of blocking buffer.
as §1, with “well, with normal plate orientation).” for “well).”
as §2

Structure (SMILES) | IC50 (Human IBAT) [nM] | Papp A→B at 120 min, 10 μM [1] [×10⁻⁶ cm/s] | Papp B→A at 120 min, 10 μM [1] [×10⁻⁶ cm/s] | bioavailability [2] [%] | IC50 (Human LBAT) [nM]
CCCCC1(CC)CN(c2ccc(O)cc2)c2cc(SC)c(OCC(=O)O)cc2S(=O)(=O)C1 (single isomer, unassigned) [Example 20, 2-((3-butyl-3-ethyl-5-(4-hydroxyphenyl)-7-(methylthio)-1,1-dioxido-2,3,4,5-tetrahydro-1,5-benzothiazepin-8-yl)oxy)acetic Acid] | 14 | – | – | – | 751
CCCCC1(CCCC)CN(c2ccc(C#N)cc2)c2cc(SC)c(OCC(=O)O)cc2S(=O)(=O)C1 [Example 5, 2-((3,3-dibutyl-5-(4-cyanophenyl)-7-(methylthio)-1,1-dioxido-2,3,4,5-tetrahydro-1,5-benzothiazepin-8-yl)oxy)acetic Acid] | 58 | 5.5 | 14.5 | 6 | –
CCCCC1(CCCC)CN(c2ccc(C(F)(F)F)cc2)c2cc(SC)c(OCC(=O)O)cc2S(=O)(=O)C1 [Example 6, 2-((3,3-dibutyl-7-(methylthio)-1,1-dioxido-5-(4-(trifluoromethyl)phenyl)-2,3,4,5-tetrahydro-1,5-benzothiazepin-8-yl)oxy)acetic Acid] | 59 | – | – | – | 3610
CCCCC1(CCCC)CN(c2ccccc2)c2cc(F)c(OCC(=O)O)cc2S(=O)(=O)C1 [Example 10, 2-((3,3-dibutyl-7-fluoro-1,1-dioxido-5-phenyl-2,3,4,5-tetrahydro-1,5-benzothiazepin-8-yl)oxy)acetic Acid] | 179 | – | – | – | 1070

Further molecules by falling IC50 (Human IBAT), results first:

IC50 (Human IBAT) [nM] | Papp A→B at 120 min, 10 μM [1] [×10⁻⁶ cm/s] | Papp B→A at 120 min, 10 μM [1] [×10⁻⁶ cm/s] | bioavailability [2] [%] | IC50 (Human LBAT) [nM] | Structure (SMILES)
350 | – | – | – | 473 | CCCCC1(CC)CN(c2ccccc2)c2cc(F)c(OCC(=O)O)cc2S(=O)(=O)C1 (centres unmarked) [Example 12, 2-((3-butyl-3-ethyl-7-fluoro-1,1-dioxido-5-phenyl-2,3,4,5-tetrahydro-1,5-benzothiazepin-8-yl)oxy)acetic Acid]
281 | – | – | – | 2530 | CCCCC1(CCCC)CN(c2ccccc2)c2cc(C#N)c(OCC(=O)O)cc2S(=O)(=O)C1 [Example 11, 2-((3,3-dibutyl-7-cyano-1,1-dioxido-5-phenyl-2,3,4,5-tetrahydro-1,5-benzothiazepin-8-yl)oxy)acetic Acid]
268 | – | – | – | 1620 | CCCCC1(CCCC)CN(c2ccccc2)c2cc(Cl)c(OCC(=O)O)cc2S(=O)(=O)C1 [Example 13, 2-((3,3-dibutyl-7-chloro-1,1-dioxido-5-phenyl-2,3,4,5-tetrahydro-1,5-benzothiazepin-8-yl)oxy)acetic Acid]
9 | 7.9 | 23.7 | 26 | – | CCCCC1(CC)CN(c2ccccc2)c2cc(N(C)C)c(OCC(=O)O)cc2S(=O)(=O)C1 (single isomer, unassigned) [Example 8, 2-((3-butyl-7-(dimethylamino)-3-ethyl-1,1-dioxido-5-phenyl-2,3,4,5-tetrahydro-1,5-benzothiazepin-8-yl)oxy)acetic Acid]
